Experimental findings from paper PMC11678869, “Functional Role of Odorant-Binding Proteins in Response to Sex Pheromone Component Z8-14:Ac in Grapholita molesta (Busck)” (Insects, 2024) are described below.

Usually Kd stands for the constant that tells how readily two partners part at equilibrium. A lower Kd goes with higher affinity.

Common to all, as to experiment: Fluorescence competitive binding assay with 1-NPN probe
Assay [1] deals with rGmolGOBP1 (Grapholita molesta, UniProt H9XTU5). The text has this: (§1) Previous researchers have successfully expressed rGmolPBP1, rGmolPBP2, rGmolPBP3, rGmolGOBP1, and rGmolGOBP2 proteins using prokaryotic expression systems. In this article, the DNA sequences of these five GmolPBPs and GmolGOBPs, with the signal peptides removed and restriction sites on both ends, were inserted into the expression vector pET28a(+) linearized with the same restriction enzyme. These vectors were then transformed into Escherichia coli BL21(DE3) and induced by isopropyl-β-d-thiogalactoside (IPTG). Since all five recombinant proteins were expressed in inclusion bodies, they were denatured using 8 M urea and then renatured using a cysteine/cystine REDOX system. The reduced recombinant proteins were purified using an Ni-NTA His Bind Resin column (7Sea Pharmatech Co., Ltd., Shanghai, China). Non-target proteins were washed off with washing buffer (20 mM Tris-HCl (pH 7.4), 20 mM imidazole, 1 mM PMSF, and 250 mM NaCl), and then the target proteins were eluted with elution buffer (20 mM Tris-HCl (pH 7.4), 1 mM PMSF, and 250 mM NaCl) with an increasing concentration of imidazole (50, 100, and 200 mM). Five milliliters of eluents with high target protein content and low levels of contaminants were collected and placed in dialysis tubing (Coolaber, Beijing, China) with a molecular weight cut-off of 3.5 kDa to remove NaCl and imidazole. The purified soluble proteins were stored at −80 °C before use.
(§2) The binding affinities of three rGmolPBPs and two rGmolGOBPs for Z8-14:Ac were determined using an F-2700 fluorescence spectrophotometer (Hitachi, Tokyo, Japan). First, we measured the dissociation constants (Kd) of the rGmolPBPs (or rGmolGOBPs) binding to 1−NPN. Each protein was diluted to 2 μM with 20 mM Tris-HCl buffer (pH 7.4); then, 2 mL of the protein solution was transferred to a quartz cuvette and titrated with 1 mM 1−NPN to a final concentration of 1–18 μM. As the doses of 1−NPN were increased, the increasing amplitude of the fluorescence intensity decreased, and finally, the binding of the protein to 1−NPN reached saturation. The Kd values were calculated using the nonlinear regression method and the Scatchard equation. Second, we measured the inhibitory constant (Ki) of Z8-14:Ac’s competitive binding with each rGmolPBP (or rGmolGOBP) from the protein/1−NPN complex. The initial fluorescence intensity values were measured after a 2 min reaction in 2 mL solution of 20 mM Tris-HCl (pH 7.4) containing 2 µM rGmolPBP (or rGmolGOBP) protein and 2 µM 1−NPN. Then, the solution was titrated with aliquots of 1 mM Z8-14:Ac to obtain final concentrations in the range of 1–14 µM, and the fluorescence intensity value of each reaction was recorded. The Ki values were calculated using the following equation: Ki = [IC50]/(1 + [1 − NPN]/Kd) where IC50 is the concentration of Z8-14:Ac when half of the initial fluorescence intensity value of the rGmolPBP (or GmolGOBP)/1−NPN complex is replaced, [1 − NPN] represents the concentration of free 1−NPN, and Kd is the dissociation constant of the rGmolPBP (or GmolGOBP)/1−NPN complex.

In assay [2] the target is rGmolGOBP2 (Grapholita molesta, UniProt H9XTU6).
From the text: as §1, §2

The target of assay [3] is rGmolPBP1 (Grapholita molesta, UniProt A0A2R4SBD6).
From the text: as §1, §2

Assay [4] has as its target rGmolPBP2 (wild-type) (Grapholita molesta, UniProt A0A059VC28).
From the text: as §1, §2

The target of assay [5] is rGmolPBP3 (Grapholita molesta, UniProt A0A059VBP3).
From the text: as §1, §2

Sequence of rGmolPBP2 (wild-type) (A0A059VC28 entry or part of it): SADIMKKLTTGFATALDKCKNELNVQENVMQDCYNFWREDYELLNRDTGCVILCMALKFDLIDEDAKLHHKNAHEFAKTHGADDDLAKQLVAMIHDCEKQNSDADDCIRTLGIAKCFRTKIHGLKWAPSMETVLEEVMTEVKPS
Sequence of rGmolPBP1 (A0A2R4SBD6 entry or part of it): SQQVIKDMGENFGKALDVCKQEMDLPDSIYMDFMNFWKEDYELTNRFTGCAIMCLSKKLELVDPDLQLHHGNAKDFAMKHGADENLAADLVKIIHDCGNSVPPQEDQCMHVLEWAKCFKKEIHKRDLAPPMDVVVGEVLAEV
Sequence of rGmolPBP3 (A0A059VBP3 entry or part of it): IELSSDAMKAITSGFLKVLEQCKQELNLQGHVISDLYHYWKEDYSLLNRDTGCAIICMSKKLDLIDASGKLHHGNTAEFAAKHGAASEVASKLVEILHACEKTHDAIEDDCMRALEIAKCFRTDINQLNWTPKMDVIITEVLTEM
Sequence of rGmolGOBP2 (H9XTU6 entry or part of it): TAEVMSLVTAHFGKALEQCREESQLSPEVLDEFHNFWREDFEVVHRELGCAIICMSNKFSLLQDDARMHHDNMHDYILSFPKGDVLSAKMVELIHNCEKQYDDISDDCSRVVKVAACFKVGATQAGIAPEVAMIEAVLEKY
Sequence of rGmolGOBP1 (H9XTU5 entry or part of it): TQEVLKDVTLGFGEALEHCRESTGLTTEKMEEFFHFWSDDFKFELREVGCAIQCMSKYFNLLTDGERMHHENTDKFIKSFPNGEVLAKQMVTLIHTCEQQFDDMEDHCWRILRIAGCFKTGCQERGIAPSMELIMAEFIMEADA

Turning to `c1ccc(Nc2cccc3ccccc23)cc1` [1−NPN, N-Phenyl-1-naphthylamine, reference compound], the Kd came out at 5.76 ± 0.01 µM in assay [1]; 4.32 ± 0.02 µM in assay [2]; 1.29 ± 0.02 µM in assay [3]; 1.09 ± 0.02 µM in assay [4]; 11.24 ± 0.08 µM in assay [5].
